The source of these data is article PMC5564600 (Oncotarget, 2017).

Common to all, as to test: biochemical
Assay type in all cases: binding

The target in assay [1] is T1, panel of 442 kinases (Homo sapiens, UniProt Q9NRM7).
T1 construct: purchased Ambit Biosciences (scanMAXX KINOMEscan)
T1 sequence (Q9NRM7 1-1088): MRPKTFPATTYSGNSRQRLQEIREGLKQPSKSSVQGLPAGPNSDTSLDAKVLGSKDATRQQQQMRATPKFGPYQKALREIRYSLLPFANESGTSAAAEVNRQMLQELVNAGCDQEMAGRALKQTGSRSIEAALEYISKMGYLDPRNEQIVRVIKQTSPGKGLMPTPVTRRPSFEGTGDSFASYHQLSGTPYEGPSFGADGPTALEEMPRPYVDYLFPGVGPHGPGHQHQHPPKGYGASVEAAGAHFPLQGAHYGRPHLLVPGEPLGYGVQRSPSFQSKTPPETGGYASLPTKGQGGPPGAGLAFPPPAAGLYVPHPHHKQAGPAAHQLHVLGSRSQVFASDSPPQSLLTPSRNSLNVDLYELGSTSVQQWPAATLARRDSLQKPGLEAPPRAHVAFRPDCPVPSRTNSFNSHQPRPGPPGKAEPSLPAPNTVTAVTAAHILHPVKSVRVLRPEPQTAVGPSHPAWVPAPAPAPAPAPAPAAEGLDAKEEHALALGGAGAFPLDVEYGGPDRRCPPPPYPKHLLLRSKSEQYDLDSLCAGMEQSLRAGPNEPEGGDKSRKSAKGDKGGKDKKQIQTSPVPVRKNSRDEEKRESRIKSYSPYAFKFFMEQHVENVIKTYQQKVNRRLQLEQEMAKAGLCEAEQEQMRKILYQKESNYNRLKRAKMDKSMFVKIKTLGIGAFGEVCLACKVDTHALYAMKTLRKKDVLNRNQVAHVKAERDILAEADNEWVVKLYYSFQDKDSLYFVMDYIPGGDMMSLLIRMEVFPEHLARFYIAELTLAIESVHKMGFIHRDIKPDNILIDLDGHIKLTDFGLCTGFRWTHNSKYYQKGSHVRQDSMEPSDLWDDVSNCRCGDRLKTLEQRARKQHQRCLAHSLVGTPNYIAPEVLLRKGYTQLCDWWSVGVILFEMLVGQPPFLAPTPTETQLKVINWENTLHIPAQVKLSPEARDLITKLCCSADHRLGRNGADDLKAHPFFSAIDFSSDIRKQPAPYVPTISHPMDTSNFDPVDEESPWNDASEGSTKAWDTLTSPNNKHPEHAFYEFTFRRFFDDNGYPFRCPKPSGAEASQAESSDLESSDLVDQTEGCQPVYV
As to conditions: kinase LATS2; for remaining activity at 1 µM: read-out: % of control at 1 µM.

For assay [2], the target named is T2, panel of 442 kinases (Homo sapiens, UniProt P42684).
T2 construct: purchased Ambit Biosciences (scanMAXX KINOMEscan)
As to conditions: ABL2; for remaining activity at 1 µM: read-out: % of control at 1 µM.

Assay [3] concerns the target T3, panel of 442 kinases (Homo sapiens, UniProt Q8TBX8).
T3 construct: purchased Ambit Biosciences (scanMAXX KINOMEscan)
T3 sequence (Q8TBX8 1-421): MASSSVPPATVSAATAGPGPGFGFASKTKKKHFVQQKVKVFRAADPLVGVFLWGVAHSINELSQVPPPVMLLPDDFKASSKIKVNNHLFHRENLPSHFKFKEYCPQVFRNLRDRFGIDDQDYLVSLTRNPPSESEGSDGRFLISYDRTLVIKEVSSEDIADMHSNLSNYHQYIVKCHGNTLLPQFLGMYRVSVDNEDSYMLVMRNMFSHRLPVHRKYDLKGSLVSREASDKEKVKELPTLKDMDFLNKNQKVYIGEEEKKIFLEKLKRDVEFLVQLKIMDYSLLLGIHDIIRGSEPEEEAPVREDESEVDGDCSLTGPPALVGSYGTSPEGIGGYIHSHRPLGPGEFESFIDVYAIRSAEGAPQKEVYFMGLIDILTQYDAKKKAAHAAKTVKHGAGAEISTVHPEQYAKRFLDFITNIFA
The note with it: kinase PIP5K2C; for remaining activity at 1 µM: read-out: % of control at 1 µM.

Assay [4] concerns the target T4, panel of 442 kinases (Homo sapiens, UniProt Q9Y243).
T4 construct: purchased Ambit Biosciences (scanMAXX KINOMEscan)
The note with it: AKT3; for remaining activity at 1 µM: read-out: % of control at 1 µM.

The target in assay [5] is T5, panel of 442 kinases (Homo sapiens, UniProt Q12866).
T5 construct: purchased Ambit Biosciences (scanMAXX KINOMEscan)
T5 sequence (Q12866 21-999): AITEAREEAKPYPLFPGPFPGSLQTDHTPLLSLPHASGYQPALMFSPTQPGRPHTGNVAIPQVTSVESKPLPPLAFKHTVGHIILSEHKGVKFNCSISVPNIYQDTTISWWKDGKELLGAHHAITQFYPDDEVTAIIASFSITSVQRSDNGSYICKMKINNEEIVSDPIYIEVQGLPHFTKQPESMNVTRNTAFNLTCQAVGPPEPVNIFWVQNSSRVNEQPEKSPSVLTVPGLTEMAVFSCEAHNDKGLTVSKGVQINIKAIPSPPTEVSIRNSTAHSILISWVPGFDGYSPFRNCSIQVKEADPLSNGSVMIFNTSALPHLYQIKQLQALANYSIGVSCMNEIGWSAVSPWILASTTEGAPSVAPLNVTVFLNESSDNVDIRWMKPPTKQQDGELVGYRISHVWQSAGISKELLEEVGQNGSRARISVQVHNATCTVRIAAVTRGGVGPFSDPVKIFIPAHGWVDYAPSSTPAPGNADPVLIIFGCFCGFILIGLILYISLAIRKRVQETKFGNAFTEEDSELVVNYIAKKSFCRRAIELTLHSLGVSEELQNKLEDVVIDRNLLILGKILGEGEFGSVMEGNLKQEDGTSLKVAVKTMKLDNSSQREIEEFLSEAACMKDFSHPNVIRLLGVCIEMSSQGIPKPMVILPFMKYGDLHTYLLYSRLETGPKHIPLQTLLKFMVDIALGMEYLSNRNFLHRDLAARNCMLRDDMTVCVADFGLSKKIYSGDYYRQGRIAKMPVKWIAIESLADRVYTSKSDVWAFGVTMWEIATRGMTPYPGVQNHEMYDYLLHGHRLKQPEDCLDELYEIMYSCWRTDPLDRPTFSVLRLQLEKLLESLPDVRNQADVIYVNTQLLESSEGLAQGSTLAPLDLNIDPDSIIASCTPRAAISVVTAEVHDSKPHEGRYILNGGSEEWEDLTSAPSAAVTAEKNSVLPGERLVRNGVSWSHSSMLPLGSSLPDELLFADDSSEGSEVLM
As to conditions: kinase MERTK; for remaining activity at 1 µM: read-out: % of control at 1 µM.

Assay [6] has as its target T6, panel of 442 kinases (Homo sapiens, UniProt Q8NI60).
T6 construct: purchased Ambit Biosciences (scanMAXX KINOMEscan)
The note with it: ADCK3; for remaining activity at 1 µM: read-out: % of control at 1 µM.

The mark [7] stands for this setting: 10 µM, read-out: % of control at 10 µM.

T6 sequence (Q8NI60 163-647): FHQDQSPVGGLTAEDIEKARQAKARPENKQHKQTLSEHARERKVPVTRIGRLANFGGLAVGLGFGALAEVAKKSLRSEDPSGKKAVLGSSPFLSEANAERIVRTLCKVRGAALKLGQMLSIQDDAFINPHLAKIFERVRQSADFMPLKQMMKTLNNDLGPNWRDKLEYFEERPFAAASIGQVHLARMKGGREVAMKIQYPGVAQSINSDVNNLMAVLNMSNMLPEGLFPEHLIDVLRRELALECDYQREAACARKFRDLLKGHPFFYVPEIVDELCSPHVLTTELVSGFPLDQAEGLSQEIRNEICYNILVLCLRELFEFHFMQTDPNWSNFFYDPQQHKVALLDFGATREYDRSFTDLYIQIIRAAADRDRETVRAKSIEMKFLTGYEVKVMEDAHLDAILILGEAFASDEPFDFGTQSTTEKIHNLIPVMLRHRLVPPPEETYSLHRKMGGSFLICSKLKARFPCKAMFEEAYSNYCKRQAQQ
T2 sequence (P42684 whole entry): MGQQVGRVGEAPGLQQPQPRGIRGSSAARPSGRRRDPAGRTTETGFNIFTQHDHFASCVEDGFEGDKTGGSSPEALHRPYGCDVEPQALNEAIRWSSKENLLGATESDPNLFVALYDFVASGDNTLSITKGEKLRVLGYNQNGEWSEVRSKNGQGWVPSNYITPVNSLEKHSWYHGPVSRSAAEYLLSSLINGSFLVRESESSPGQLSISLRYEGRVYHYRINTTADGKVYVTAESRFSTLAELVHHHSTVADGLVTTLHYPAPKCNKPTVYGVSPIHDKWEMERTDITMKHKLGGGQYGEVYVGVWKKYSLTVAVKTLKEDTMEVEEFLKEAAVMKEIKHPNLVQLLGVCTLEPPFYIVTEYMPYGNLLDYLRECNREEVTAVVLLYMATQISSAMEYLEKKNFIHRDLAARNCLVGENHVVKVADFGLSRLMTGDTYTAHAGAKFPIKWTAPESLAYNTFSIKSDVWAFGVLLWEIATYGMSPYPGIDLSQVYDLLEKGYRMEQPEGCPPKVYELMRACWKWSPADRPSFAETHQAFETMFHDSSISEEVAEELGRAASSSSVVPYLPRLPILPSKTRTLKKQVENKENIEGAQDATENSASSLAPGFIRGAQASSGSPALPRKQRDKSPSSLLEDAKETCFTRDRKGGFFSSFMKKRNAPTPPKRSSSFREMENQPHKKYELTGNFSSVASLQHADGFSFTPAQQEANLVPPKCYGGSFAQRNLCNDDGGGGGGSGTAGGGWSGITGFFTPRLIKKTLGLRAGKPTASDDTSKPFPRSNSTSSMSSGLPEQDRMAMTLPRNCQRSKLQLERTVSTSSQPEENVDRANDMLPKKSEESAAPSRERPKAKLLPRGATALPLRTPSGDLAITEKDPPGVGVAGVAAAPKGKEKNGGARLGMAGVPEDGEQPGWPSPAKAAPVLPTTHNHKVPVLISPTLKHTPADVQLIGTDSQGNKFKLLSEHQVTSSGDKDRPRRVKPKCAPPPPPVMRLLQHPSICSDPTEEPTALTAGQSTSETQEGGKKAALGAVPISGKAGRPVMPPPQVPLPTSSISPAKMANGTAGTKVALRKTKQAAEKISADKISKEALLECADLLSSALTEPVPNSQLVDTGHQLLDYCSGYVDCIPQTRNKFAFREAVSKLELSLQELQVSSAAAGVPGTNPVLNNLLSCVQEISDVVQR
T4 sequence (Q9Y243 whole entry): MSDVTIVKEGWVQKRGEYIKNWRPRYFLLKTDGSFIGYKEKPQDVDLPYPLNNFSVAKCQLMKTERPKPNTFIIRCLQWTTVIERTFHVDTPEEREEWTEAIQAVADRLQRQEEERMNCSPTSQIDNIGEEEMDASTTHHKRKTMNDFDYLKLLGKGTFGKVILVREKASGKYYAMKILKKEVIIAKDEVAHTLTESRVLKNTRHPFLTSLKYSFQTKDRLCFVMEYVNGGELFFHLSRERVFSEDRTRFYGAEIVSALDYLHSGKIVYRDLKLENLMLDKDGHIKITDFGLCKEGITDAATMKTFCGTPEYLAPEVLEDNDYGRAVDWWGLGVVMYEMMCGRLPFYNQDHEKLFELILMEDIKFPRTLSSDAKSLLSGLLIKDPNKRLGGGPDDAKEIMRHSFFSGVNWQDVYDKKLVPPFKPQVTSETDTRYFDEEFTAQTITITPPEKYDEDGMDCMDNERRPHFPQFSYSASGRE

In the case of `COc1ncc(-c2ccc3nccc(-c4ccnnc4)c3c2)cc1NS(=O)(=O)c1ccc(F)cc1F` [Omipalisib], the remaining activity at 1 µM is 100% in assay [1]; 100% in assay [2]; 56% in assay [3]; 100% in assay [4]; 100% in assay [5]; 87% in assay [6].

For the compound `Cn1c(=O)n(-c2ccc(C(C)(C)C#N)cc2)c2c3cc(-c4cnc5ccccc5c4)ccc3ncc21` [Dactolisib, 2-methyl-2-[4-(3-methyl-2-oxo-8-quinolin-3-yl-2,3-dihydroimidazo[4,5-c]quinolin-1-yl)-phenyl] propionitrile], the remaining activity at 1 µM was found to be 100% in assay [1]; 100% in assay [2]; 89% in assay [3]; 84% in assay [4]; 80% in assay [5]; 82% in assay [6].

`Nc1cc(C(F)(F)F)c(-c2cc(N3CCOCC3)nc(N3CCOCC3)n2)cn1` [Buparlisib]: the remaining activity at 1 µM in assay [1] amounted to 75%; in assay [2], 100%; in assay [3] it was 71%; in assay [4] it was 84%; in assay [5], 98%; in assay [6], 100%. The remaining activity at 10 µM in assay [1] (setting [7]) came to 100%; in assay [2] (setting [7]), 100%; in assay [3] (setting [7]) it was 46%; in assay [4] (setting [7]), 92%; in assay [5] (setting [7]), 95%; in assay [6] (setting [7]), 89%.

Turning to `FC(F)c1nc2ccccc2n1-c1nc(N2CCOCC2)nc(N2CCOCC2)n1` [ZSTK474, 2-(difluoromethyl)-1-[4,6-di(4-morpholinyl)-1,3,5-triazin-2-yl]-1H-benzimidazole], the remaining activity at 1 µM was 100% in assay [1]; 100% in assay [2]; 100% in assay [3]; 66% in assay [4]; 84% in assay [5]; 82% in assay [6].
